Laboratory results published in patent US9284325B2, “Spectinamides as anti-tuberculosis agents” (UNIVERSITY OF TENNESSEE RESEARCH FOUNDATION, priority 2009, dated 2016).
Counter-ions that a name gives are not always drawn.

Legend:
B. anthracis Sterne 34F2 = assay: microbe, parasite or virus in culture; assay type: cell-based, Bacillus anthracis; details: Bacillus anthracis, STERNE34F2, read-out: MIC B. anthracis 34F2
M. tuberculosis H37Rv = assay: MIC determination by microbroth dilution, anti-tuberculosis activity; assay type: cell-based, Mycobacterium tuberculosis; details: Mycobacterium tuberculosis, H37RV, 168 h; read-out: MIC
[1] = tested on: Strep. pyogenes ATCC 700294; assay: MIC determination by microbroth dilution; assay type: cell-based, Streptococcus pyogenes; details: Streptococcus pyogenes, ATCC700294, read-out: MIC S. pyogenes
P. aeruginosa PAO1 = assay: MIC determination by microbroth dilution; assay type: cell-based, Pseudomonas aeruginosa; details: Pseudomonas aeruginosa
[2] = tested on: Proteus mirabilis ATCC 25933; assay: MIC determination by microbroth dilution; assay type: cell-based; details: ATCC25933
[3] = tested on: Klebsiella pneumoniae ATCC 33495; assay: MIC determination by microbroth dilution; assay type: cell-based; details: ATCC33495
[4] = tested on: Acinetobacter baumannii ATCC 19606; assay: MIC determination by microbroth dilution; assay type: cell-based; details: ATCC19606
E. coli K12 = assay: MIC determination by microbroth dilution; assay type: cell-based, Escherichia coli; details: Escherichia coli, K12
[5] = tested on: Proteus vulgaris ATCC 33420; assay: MIC determination by microbroth dilution; assay type: cell-based; details: ATCC33420
[6] = tested on: Strenotrophomonas maltophilia ATCC 13637; assay: MIC determination by microbroth dilution; assay type: cell-based
E. faecalis ATCC 33186 = assay: MIC determination by microbroth dilution; assay type: cell-based, Enterococcus faecalis; details: Enterococcus faecalis, ATCC33186
[7] = tested on: Burkholderia cepacia ATCC 25416; assay: MIC determination by microbroth dilution; assay type: cell-based; details: ATCC25416, read-out: MIC B. cepcia
[8] = tested on: Strep. pneumoniae DAW27 or strain R6; assay: MIC determination by microbroth dilution; assay type: cell-based, Streptococcus pneumoniae; details: Streptococcus pneumoniae; Strep. pneumoniae DAW27 or strain R6 (for 1443-1544); read-out: MIC S. pneumoniae
E. coli K12 ΔtolC = assay: microbe, parasite or virus in culture; assay type: cell-based; details: Escherichia coli, read-out: MIC E. coli K12 ΔtolC
[9] = tested on: S. aureus 8325 or strain ATCC 29213; assay: MIC determination by microbroth dilution; assay type: cell-based, Staphylococcus aureus; details: Staphylococcus aureus, ATCC29213; S. aureus 8325 or strain ATCC 29213 (for 1471-1544)

Measured: MIC

CN[C@@H]1[C@H](O)[C@H](NC)C2O[C@]3(O)C(OC2[C@H]1O)O[C@H](C)C[C@H]3NC(=O)Cc1csc(Nc2ccccc2)n1 (stereo partly drawn) [Compound 1520, 3′-Dihydro-3′-deoxy-4(R)-(2-(phenylamino)thiazol-4-yl)acetylamino spectinomycin trihydrobromide]
3.1 µg/mL: [1] | [8]
25 µg/mL: E. coli K12 ΔtolC
100 µg/mL: E. faecalis ATCC 33186 | [9]
6.25 µg/mL: M. tuberculosis H37Rv
> 200 µg/mL: all other assays above

CN[C@@H]1[C@H](O)[C@H](NC)C2O[C@]3(O)C(OC2[C@H]1O)O[C@H](C)C[C@H]3NC(=O)Cc1ccc(Br)cn1 (stereo partly drawn) [Compound 1516, 3′-Dihydro-3′-deoxy-4(R)-(5-bromopyridin-2-yl)acetylamino spectinomycin trihydrobromide]
1.56 µg/mL: M. tuberculosis H37Rv
6.25 µg/mL: [1] | [8]
100 µg/mL: E. faecalis ATCC 33186
12.5 µg/mL: E. coli K12 ΔtolC
50 µg/mL: [9]
> 200 µg/mL: all other assays above

CN[C@@H]1[C@H](O)[C@H](NC)C2O[C@]3(O)C(OC2[C@H]1O)O[C@H](C)C[C@H]3NC(=O)c1cccc2cccnc12 (stereo partly drawn) [Compound 1536, 3′-Dihydro-3′-deoxy-4(R)-(quinoline-8-yl)carbonylamino spec-tinomycin trihydrobromide]
200 µg/mL: [8]
> 200 µg/mL: all other assays above

CN[C@@H]1[C@H](O)[C@H](NC)C2O[C@]3(O)C(OC2[C@H]1O)O[C@H](C)C[C@H]3NC(=O)CCNC(=O)c1ccccc1 (stereo partly drawn) [Compound 1503, 3′-Dihydro-3′-deoxy-4(R)-3-benzamido propanoylamino spectino-mycin Dihydrochloride]
> 200 µg/mL: all assays above

CN[C@@H]1[C@H](O)[C@H](NC)C2O[C@]3(O)C(OC2[C@H]1O)O[C@H](C)C[C@H]3NC(=O)Cc1csc(Nc2ccc(OC(F)(F)F)cc2)n1 (stereo partly drawn) [Compound 1540, 3′-Dihydro-3′-deoxy-4(R)-(2-((4-(trifluoromethoxy)phenyl)amino)-thiazol-4-yl)acetylamino spectinomycin tribromide]
100 µg/mL: [9]
6.25 µg/mL: M. tuberculosis H37Rv | [1] | [8]
200 µg/mL: [6]
12.5 µg/mL: E. coli K12 ΔtolC
25 µg/mL: P. aeruginosa PAO1 | E. faecalis ATCC 33186
> 200 µg/mL: all other assays above

CN[C@@H]1[C@H](O)[C@H](NC)C2O[C@]3(O)C(OC2[C@H]1O)O[C@H](C)C[C@H]3NC(=O)[C@@H](N)Cc1ccccc1 (stereo partly drawn) [Compound 1515, 3′-Dihydro-3′-deoxy-4(R)-[2(S)-amino,3-phenyl]propanoylamino spectinomycin Trihydrochloride]
12.5 µg/mL: [1] | E. coli K12 ΔtolC
6.25 µg/mL: [8]
100 µg/mL: [5]
200 µg/mL: M. tuberculosis H37Rv
> 200 µg/mL: all other assays above

CN[C@@H]1[C@H](O)[C@H](NC)C2O[C@]3(O)C(OC2[C@H]1O)O[C@H](C)C[C@H]3NC(=O)CCN (stereo partly drawn) [Compound 1469, 3′-Dihydro-3′-deoxy-4(R)-(3-amino)propanoylamino spectinomycin Trihydrochloride]
50 µg/mL: B. anthracis Sterne 34F2 | E. faecalis ATCC 33186 | [8]
200 µg/mL: M. tuberculosis H37Rv
25 µg/mL: [6]
100 µg/mL: [1] | E. coli K12 ΔtolC
> 200 µg/mL: all other assays above

CN[C@@H]1[C@H](O)[C@H](NC)C2O[C@]3(O)C(OC2[C@H]1O)O[C@H](C)C[C@H]3NC(=O)[C@H](Cc1ccccc1)NC(=O)CN (stereo partly drawn) [Compound 1502, 3′-Dihydro-3′-deoxy-4(R)-[2(S)-(2-aminoacetamido)-3-phenyl]-propanoylamino spectinomycin Trihydrochloride]
> 200 µg/mL: all assays above

CN[C@@H]1[C@H](O)[C@H](NC)C2O[C@]3(O)C(OC2[C@H]1O)O[C@H](C)C[C@H]3NC(=O)Cc1cccnn1 (stereo partly drawn) [Compound 1449, 3′-Dihydro-3′-deoxy-4(R)-(pyridazin-3-yl)acetylamino spectinomycin tetra hydrobromide]
25 µg/mL: M. tuberculosis H37Rv | [8]
100 µg/mL: E. coli K12 ΔtolC
200 µg/mL: [1]
> 200 µg/mL: all other assays above

CN[C@@H]1[C@H](O)[C@H](NC)C2O[C@]3(O)C(OC2[C@H]1O)O[C@H](C)C[C@H]3NC(=O)Cc1csc(Nc2ccc(F)cc2)n1 (stereo partly drawn) [Compound 1538, 3′-Dihydro-3′-deoxy-4(R)-(2-((4-fluorophenyl)amino)thiazol-4-yl)acetylamino spectinomycin tribromide]
200 µg/mL: P. aeruginosa PAO1
100 µg/mL: [9]
3.1 µg/mL: [8]
6.25 µg/mL: M. tuberculosis H37Rv | [1]
25 µg/mL: E. faecalis ATCC 33186 | E. coli K12 ΔtolC
> 200 µg/mL: all other assays above

CN[C@@H]1[C@H](O)[C@H](NC)C2O[C@]3(O)C(OC2[C@H]1O)O[C@H](C)C[C@H]3NC(=O)Cc1csc(Nc2cccc(F)c2)n1 (stereo partly drawn) [Compound 1539, 3′-Dihydro-3′-deoxy-4(R)-(2-((3-fluorophenyl)amino)thiazol-4-yl)acetylamino spectinomycin tribromide]
25 µg/mL: E. faecalis ATCC 33186
3.1 µg/mL: [1] | [8]
6.25 µg/mL: M. tuberculosis H37Rv
100 µg/mL: [9]
12.5 µg/mL: E. coli K12 ΔtolC
> 200 µg/mL: all other assays above

CN[C@@H]1[C@H](O)[C@H](NC)C2O[C@]3(O)C(OC2[C@H]1O)O[C@H](C)C[C@H]3NC(=O)Cc1ccc([N+](=O)[O-])cn1 (stereo partly drawn) [Compound 1490, 3′-Dihydro-3′-deoxy-4(R)-(5-nitropyridin-2-yl)acetylamino spectinomycin trihydrobromide]
6.25 µg/mL: M. tuberculosis H37Rv
200 µg/mL: E. coli K12
12.5 µg/mL: [1] | [8] | E. coli K12 ΔtolC
50 µg/mL: E. faecalis ATCC 33186
100 µg/mL: [9]
> 200 µg/mL: all other assays above

CN[C@@H]1[C@H](O)[C@H](NC)C2O[C@]3(O)C(OC2[C@H]1O)O[C@H](C)C[C@H]3NC(=O)Cc1ccc(-c2cccc(OC)c2)cn1 (stereo partly drawn) [Compound 1543, 3′-Dihydro-3′-deoxy-4(R)-(5-(3-methoxyphenyl)pyridin-2-yl)acetyl-amino spectinomycin tribromide]
3.1 µg/mL: [8]
6.25 µg/mL: M. tuberculosis H37Rv | [1]
100 µg/mL: [9]
200 µg/mL: [6]
12.5 µg/mL: E. faecalis ATCC 33186
< 6.25 µg/mL: E. coli K12 ΔtolC
> 200 µg/mL: all other assays above
